According to PMC7802074, “Azanitrile Inhibitors of the SmCB1 Protease Target Are Lethal to Schistosoma mansoni: Structural and Mechanistic Insights into Chemotype Reactivity” (ACS Infectious Diseases, 2020):
Values joined by “and” are separate entries in the source; they are usually repeats but may differ in a detail not shown here. Equal values may be shown once.

Assays:
recombinant SmCB1 = recombinant SmCB1 (Schistosoma mansoni, UniProt Q8MNY2, T185A/T300A); experiment: SmCB1 kinetic inhibition assay with fluorogenic substrate Cbz-Phe-Arg-AMC; assay type: biochemical; conditions: for Ki: SmCB1 inhibition Ki, kinetic activity assay, pH 5.5, 37 °C; for Ki / SmCB1 inhibition k2nd (second-order rate constant): substrate Cbz-Phe-Arg-AMC; for SmCB1 inhibition k2nd (second-order rate constant): slow-binding azadipeptide nitriles
Method: Inhibition measurements were performed in triplicates in 96-well microplates (100 μL assay volume) at 37 °C. SmCB1 (20–40 pM) was added to a mixture of the fluorogenic substrate Cbz-Phe-Arg-AMC (20 μM) and an inhibitor (0–100 μM) in 0.1 M sodium acetate, pH 5.5, containing 2.5 mM dithiothreitol and 0.1% PEG 6000. The substrate hydrolysis was monitored in an Infinite M1000 microplate reader (Tecan, Männedorf, Switzerland) at excitation and emission wavelengths of 360 and 465 nm, respectively, for up to 15 and 60 min for fast- and slow-binding inhibitors, respectively. […] For slow-binding inhibitors, an observed first-order rate constant kobs was calculated at each inhibitor concentration by fitting the progress curve to the equation P = vst + (vi – vs)(1 – […])/kobs + d, where P is the product formation, vs is the steady-state velocity, t is the reaction time, vi is the initial velocity, and d is the offset. The inhibition constant Ki′ was determined by nonlinear regression using the equation vs/v0 = 1/(1 + [I]/Ki′). The true inhibition constants Ki were then calculated using the equation Ki = Ki′/(1 + [S]/Km), where [S] is the substrate concentration and Km is the Michaelis constant. The apparent second-order rate constant k2nd′ was determined by fitting to the linear equation kobs = k2nd′[I] + koff, where koff is the first-order rate constants for the dissociation of the enzyme–inhibitor complex and the true constant k2nd was calculated by the correction k2nd = k2nd′(1 + [S]/Km). […] In none of the assay systems did the final concentration of DMSO exceed 1.5%.

[1] = Cytotoxicity, XTT test, HUVEC; assay type: cell-based; conditions: human, % viability vs. untreated cells, read-out: Cell line viability after 72 h
Method: (§1) T able S4. […]
(§2) Cell line viability after 72 h (%)a
(§3) Inhibitor 1 µM 10 µM 1 µM 10 µM
(§4) aCytotoxicity of the inhibitors towards human cell lines are expressed as % viability vs. untreated cells. Cells were treated with
(§5) the indicated concentration of the compounds for 72 h and assayed by means of the XTT test (as described previously 12).
(§6) Standard deviation values were within 10% of the mean of tetraplicates. […]

[2] = test system: S. mansoni newly transformed schistosomula (NTS); experiment: Schistosome phenotypic assay; assay type: cell-based, Schistosoma mansoni; conditions: for Severity score Day 1 / Severity score Day 2 / Severity score Day 3 / Severity score Day 4: 10 μM inhibitor, scale 0 (no effect) to 4 (severe); for Severity score Day 1: 24 h; for Severity score Day 2: 48 h
Method: Newly transformed schistosomula (NTS) of S. mansoni were prepared by mechanically transforming infective larvae (cercariae) as described previously.[70],[71] NTS (200–300 parasites) were incubated in 200 μL of Basch Medium 169 containing 5% FBS, 100 U mL^–1 penicillin, and 100 μg mL^–1 streptomycin at 5% CO2 and 37 °C.[70],[72],[73] Inhibitors were added at the final concentration of 10 μM,[20],[69] and changes in phenotypes were observed every 24 h for up to 4 days. A constrained nomenclature of “descriptors” is used to record the multiple and dynamic changes in movement, shape, and translucence of which the schistosome parasite is capable (Table S3).[70] These descriptors are then converted into an ordinal “severity score” system from 0 (no effect) to 4 (maximum effect), which allows for the relative comparison of compound effects, as described.[74],[75] Images of NTS were captured using a Zeiss Axiovert 40 C inverted microscope (10× objective) and a Zeiss AxioCam MRc digital camera controlled by AxioVision 40 (v. 4.8.1.0) software.

[3] = Cytotoxicity, XTT test, HepG2; assay type: cell-based; conditions: human, % viability vs. untreated cells, read-out: Cell line viability after 72 h; for viability at 72 h, 1 µM: HepG2, 1 µM; for viability at 72 h, 10 µM: HepG2, 10 µM
Method: as §1, §2, §3, §4, §5, §6

Sequence of recombinant SmCB1 (Q8MNY2 87-340 T185A/T300A): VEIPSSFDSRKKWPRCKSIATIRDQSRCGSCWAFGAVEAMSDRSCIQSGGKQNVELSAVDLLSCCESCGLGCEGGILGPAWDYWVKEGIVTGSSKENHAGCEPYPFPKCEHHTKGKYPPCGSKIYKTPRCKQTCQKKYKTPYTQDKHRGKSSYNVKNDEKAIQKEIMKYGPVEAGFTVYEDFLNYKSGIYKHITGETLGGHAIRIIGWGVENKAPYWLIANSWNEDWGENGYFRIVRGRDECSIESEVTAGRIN

| SMILES | Ki (recombinant SmCB1) [nM] | SmCB1 inhibition k2nd (second-order rate constant) (recombinant SmCB1) | viability at 72 h, 1 µM [1] [%] | viability at 72 h, 10 µM [1] [%] | Descriptors Day 1 (phenotypic changes) ([2]; 10 µM inhibitor) | Descriptors Day 2 (phenotypic changes) ([2]; 10 µM inhibitor) | Descriptors Day 3 (phenotypic changes) ([2]; 10 µM inhibitor) | Severity score Day 1 [2] | Severity score Day 2 [2] | Severity score Day 3 [2] | Severity score Day 4 [2] | viability at 72 h, 1 µM [3] [%] | viability at 72 h, 10 µM [3] [%] | koff (recombinant SmCB1) [s⁻¹] | binding kinetics (shape of progress curves) (recombinant SmCB1; Figure 2) |
| --- | --- | --- | --- | --- | --- | --- | --- | --- | --- | --- | --- | --- | --- | --- | --- |
| CN(C#N)N(C)C(=O)[C@H](CC1CCCCC1)NC(=O)OCc1ccccc1 [Compound 11a] | 4.6 ± 0.5 | 32.7 ± 2.8 10^3 M^-1 s^-1 | 92 | 85 | R, Unc | Deg | Deg | 2 | 4 | 4 | 4 | 89 | 109 | – | – |
| CC(C)CC(NC(=O)NCc1ccccc1)C(=O)N(C)N(C)C#N (stereo not shown) [Compound 3a] | 6.1 ± 0.7 | 20.4 10^3 M^-1 s^-1 and 20.4 ± 1.9 10^3 M^-1 s^-1 | 106 | 90 | R, Unc, Dark | Deg | – | 3 | 4 | 4 | 4 | 82 | 83 | – | – |
| CC(C)C[C@H](NC(=O)c1ccc(-c2noc(-c3cccs3)n2)cc1)C(=O)N(C)N(C)C#N [Compound 5a] | 4.8 ± 0.3 | 29.0 10^3 M^-1 s^-1 and 29.0 ±1.4 10^3 M^-1 s^-1 | 91 | 66 | Deg | Deg | – | 2 | 4 | 4 | 4 | 91 | 101 | – | – |
| CCCCCN(C#N)N(C)C(=O)[C@H](Cc1ccccc1)NC(=O)OCc1ccccc1 [Compound 9a] | 6.2 ± 0.5 | 2.1 10^3 M^-1 s^-1 and 2.1 ± 0.3 10^3 M^-1 s^-1 | 104 | 81 | Deg | Deg | – | 4 and 4/4 | 4 and 4/4 | 4 | 4 | 85 | 78 | – | – |
| CN(C(=O)[C@H](Cc1ccccc1)NC(=O)OCc1ccccc1)N(C#N)CCc1ccccc1 [Compound 8a] | 4.8 ± 0.2 | 5.2 10^3 M^-1 s^-1 and 5.2 ± 0.4 10^3 M^-1 s^-1 | 101 | 44 | Deg | – | – | 4 and 4/4 | 4 and 4/4 | 4 | 4 | 102 | 83 | – | – |
| CN(C#N)N(C)C(=O)[C@H](Cc1ccccc1)NC(=O)OCc1ccccc1 [Compound 2a] | 19.4 ± 1.4 | 15.7 ± 1.1 10^3 M^-1 s^-1 | – | – | Deg | Deg | – | 4 and 4/4 | 4 and 4/4 | 4 | 4 | – | – | 0.0003 ± 2e-05 | slow-binding |
